Laboratory results published in ChEMBL document CHEMBL1129525 (J Med Chem, 1996).

Assays:
Toxoplasma gondii [1] = experiment: Inhibitory activity against Toxoplasma gondii cell growth(ca denotes calculated value); assay type: functional, organism-based
[2] = target: T1, Bifunctional dihydrofolate reductase-thymidylate synthase (Toxoplasma gondii, UniProt Q07422)
T1 sequence (Q07422 whole entry): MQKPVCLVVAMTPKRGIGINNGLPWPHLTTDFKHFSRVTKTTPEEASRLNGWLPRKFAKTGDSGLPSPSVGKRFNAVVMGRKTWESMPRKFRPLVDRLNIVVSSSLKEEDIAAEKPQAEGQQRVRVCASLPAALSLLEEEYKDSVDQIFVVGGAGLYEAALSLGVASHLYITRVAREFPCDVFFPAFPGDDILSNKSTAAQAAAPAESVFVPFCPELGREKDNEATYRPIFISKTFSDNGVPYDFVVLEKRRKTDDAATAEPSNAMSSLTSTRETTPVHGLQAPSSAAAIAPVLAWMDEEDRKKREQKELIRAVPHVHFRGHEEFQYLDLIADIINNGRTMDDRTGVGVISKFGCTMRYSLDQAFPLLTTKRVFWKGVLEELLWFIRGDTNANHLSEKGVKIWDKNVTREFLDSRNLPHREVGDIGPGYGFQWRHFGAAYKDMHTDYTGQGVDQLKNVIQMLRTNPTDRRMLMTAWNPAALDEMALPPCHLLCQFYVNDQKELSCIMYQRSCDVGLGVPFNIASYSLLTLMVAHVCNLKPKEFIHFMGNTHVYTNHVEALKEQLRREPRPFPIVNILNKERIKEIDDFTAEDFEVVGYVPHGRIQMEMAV
Description: Inhibitory activity against Toxoplasma gondii dihydrofolate reductase

Toxoplasma gondii [3] = experiment: Inhibition of Toxoplasma gondii cell growth; assay type: functional, organism-based
Dihydrofolate reductase [4] = target: T2, Dihydrofolate reductase (Pneumocystis carinii, UniProt P16184)
T2 sequence (P16184 whole entry): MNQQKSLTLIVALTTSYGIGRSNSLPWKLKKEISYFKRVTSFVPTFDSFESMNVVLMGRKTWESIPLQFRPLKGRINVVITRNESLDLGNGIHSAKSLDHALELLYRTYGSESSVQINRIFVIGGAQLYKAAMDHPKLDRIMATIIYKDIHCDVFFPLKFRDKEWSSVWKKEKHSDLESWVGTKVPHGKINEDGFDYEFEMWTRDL
Description: Inhibitory activity against Pneumocystis carinii dihydrofolate reductase

Dihydrofolate reductase [5] = target: T3, Dihydrofolate reductase (Rattus norvegicus, UniProt Q920D2)
T3 sequence (Q920D2 whole entry): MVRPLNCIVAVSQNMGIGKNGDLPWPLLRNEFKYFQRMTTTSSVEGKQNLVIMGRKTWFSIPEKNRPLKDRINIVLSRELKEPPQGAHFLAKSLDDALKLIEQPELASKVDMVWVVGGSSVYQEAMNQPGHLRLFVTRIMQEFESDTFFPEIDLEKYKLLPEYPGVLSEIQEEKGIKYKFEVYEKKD
Description: Inhibitory activity against rat liver dihydrofolate reductase

Compound | IC50 (Dihydrofolate reductase [4]) | IC50 (Dihydrofolate reductase [5]) | IC50 (Toxoplasma gondii [1]) | IC50 [2] | IC50 (Toxoplasma gondii [3])
COc1cc(NCc2ccc3nc(N)nc(N)c3c2C)cc(OC)c1OC [TRIMETREXATE] |  |  | 0.02 µM |  | 
Cc1cccc(SCc2cnc3nc(N)nc(N)c3n2)c1 | 21.2 µM | 8.48 µM |  | 1.8 µM | 4 µM
COc1ccc(OC)c(CCc2cnc3nc(N)nc(N)c3n2)c1 | 11.1 µM | 23.2 µM |  | 5.4 µM | 5 µM
COc1ccc(SCc2cnc3nc(N)nc(N)c3c2C)cc1OC | 0.15 µM | 0.18 µM |  | 0.03 µM | 5 µM
Nc1nc(N)c2cc(CNc3ccc(Cl)cc3)cnc2n1 | 0.97 µM | 0.72 µM |  | 0.3 µM | 4 µM
Cc1c(CSc2cccc3ccccc23)cnc2nc(N)nc(N)c12 | 0.29 µM | 0.55 µM |  | 0.03 µM | 0.04 µM
COc1ccc(OC)c(N(C)Cc2cnc3nc(N)nc(N)c3n2)c1 | 3.9 µM | 0.47 µM |  | 0.21 µM | 1.6 µM

Continued by falling IC50 (Dihydrofolate reductase [4]), values first:

IC50 (Dihydrofolate reductase [4]) | IC50 (Dihydrofolate reductase [5]) | Compound | IC50 (Toxoplasma gondii [1]) | IC50 [2] | IC50 (Toxoplasma gondii [3])
0.75 µM | 0.46 µM | COc1ccc(OC)c(NCc2ccc3nc(N)nc(N)c3c2)c1 |  | 0.14 µM | 0.6 µM
0.6 µM | 0.073 µM | Nc1nc(N)c2cc(CNc3ccc(Cl)cc3)ccc2n1 |  | 0.075 µM | 0.01 µM
0.34 µM | 0.6 µM | COc1cccc(SCc2cnc3nc(N)nc(N)c3c2C)c1 |  | 0.11 µM | 0.2 µM
0.22 µM | 0.11 µM | Cc1c(CNc2cccc3ccccc23)cnc2nc(N)nc(N)c12 |  | 0.24 µM | 0.012 µM
0.1 µM | 0.13 µM | Cc1c(CNc2cccc3c2CCCC3)cnc2nc(N)nc(N)c12 |  | 0.026 µM | 0.06 µM
0.093 µM | 0.23 µM | COc1ccc(C(F)(F)F)cc1N(C)Cc1cnc2nc(N)nc(N)c2c1C |  | 0.038 µM | 0.2 µM
0.068 µM | 0.19 µM | Cc1c(CSc2cccc(Cl)c2)cnc2nc(N)nc(N)c12 |  | 0.09 µM | 0.15 µM
0.051 µM | 0.0065 µM | COc1ccc(NCc2cnc3nc(N)nc(N)c3c2C)cc1OC |  | 0.0027 µM | 0.6 µM
